Laboratory results: patent US10703746B2, “Mutant IDH1 inhibitors useful for treating cancer” (THE UNITED STATES OF AMERICA, AS REPRESENTED BY THE …, priority 2014, dated 2020)

Assays:
[1] = biological target: IDH1 R132H (Homo sapiens, UniProt O75874, R132H); assay: IDH1 R132H enzymatic assay (NADPH depletion coupled to diaphorase/resazurin); type: biochemical
[2] = biological target: IDH1 R132C (Homo sapiens, UniProt O75874, R132C); assay: IDH1 R132C enzymatic assay (NADPH depletion coupled to diaphorase/resazurin); type: biochemical
How it was run: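 NADPH depletion, read via diaphorase/resazurin coupling, after adding substrate at 0.6 mM α-KG and 0.012 mM NADPH. Beforehand, 0.00032 mg/mL enzyme sat with compound 30 min at room temperature in pH 6.5 potassium phosphate buffer with MgCl2, glycerol and BSA.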

[3] = IDH1 R132H enzymatic inhibition, IC50 class
[4] = IDH1 R132C enzymatic inhibition, IC50 class
[5] = enzymatic inhibition, IDH1 R132H
[6] = enzymatic inhibition, IDH1 R132C

IDH1 R132H, sequence (O75874 whole entry R132H): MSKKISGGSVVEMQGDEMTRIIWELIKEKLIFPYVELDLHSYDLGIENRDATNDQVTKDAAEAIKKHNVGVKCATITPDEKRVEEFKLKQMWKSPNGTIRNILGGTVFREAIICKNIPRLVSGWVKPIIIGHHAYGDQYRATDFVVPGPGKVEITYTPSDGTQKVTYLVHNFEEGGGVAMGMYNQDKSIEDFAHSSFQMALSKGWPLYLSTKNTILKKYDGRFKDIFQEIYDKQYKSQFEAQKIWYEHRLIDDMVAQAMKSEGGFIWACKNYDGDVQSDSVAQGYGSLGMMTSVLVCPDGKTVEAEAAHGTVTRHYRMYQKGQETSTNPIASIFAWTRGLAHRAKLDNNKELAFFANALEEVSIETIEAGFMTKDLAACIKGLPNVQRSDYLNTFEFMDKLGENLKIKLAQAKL
IDH1 R132C, sequence (O75874 whole entry R132C): as the sequence (O75874 whole entry R132H) above, with H132C counted along it

SMILES | IC50 [1, 3] [nM] | IC50 [2, 4] [nM] | IC50 [1, 5] [nM] | IC50 [2, 6] [nM]
Cn1nccc1-n1c2c(cc(-c3nc(-c4ccc(Cl)cc4)cs3)c1=O)C(=O)CC(C)(C)C2 [Compound 382] | 5000 to 20000 | 1000 to 5000 | – | –
CCc1cccc(CC)c1-n1c(CC(C)C)c(C(=O)N2CCNCC2)cc(-c2nc(-c3ccc(Cl)cc3)c(C3CC3)s2)c1=O [Compound 385] | 300 to 1000 | < 300 | – | –
CCc1cccc(CC)c1-n1c(CC(C)C)c(CO)cc(-c2nc(-c3ccc(Cl)cc3)cs2)c1=O [Compound 391] | 300 to 1000 | 300 to 1000 | – | –
CCc1cccc(CC)c1-n1c(O)c(C(=O)CC(C)C)cc(-c2nc(-c3ccc(Cl)cc3)cs2)c1=O [Compound 392] | 5000 to 20000 | 5000 to 20000 | – | –
COc1ccc(Cl)c(-n2c3c(cc(-c4nc(-c5ccc(Cl)cc5)cs4)c2=O)C(=O)CC(C)(C)C3)c1 [Compound 395] | 300 to 1000 | < 300 | – | –
CCc1cccc(CC)c1-n1c(C2CCCC2)c(C(=O)N2CCNCC2)cc(-c2nc(-c3ccc(Cl)cc3)cs2)c1=O [Compound 398] | 300 to 1000 | < 300 | – | –
CCc1cccc(CC)c1-n1c(C)c(C(=O)N2CCNCC2)c(O)c(C(=O)Nc2nc(-c3ccc(Cl)cc3)cs2)c1=O [Compound 400] | > 20000 | > 20000 | – | –
CC1(C)CC(=O)c2cc(-c3nc(-c4ccc(Cl)cc4)cs3)c(=O)n(-c3sccc3C#N)c2C1 [Compound 402] | – | – | 300 to 1000 | < 300
CCOCc1c(C(=O)N2CCNCC2)cc(-c2nc(-c3ccc(Cl)cc3)cs2)c(=O)n1-c1c(CC)cccc1CC [Compound 404] | – | – | < 300 | < 300
CCc1cccc(CC)c1-n1c(CC(C)C)c(C(=O)N2CCNCC2)cc(-c2nc(-c3ccc(Cl)nc3)c(C)s2)c1=O [Compound 405] | – | – | < 300 | < 300
CCc1ccc(N2CCN(C)CC2)c(CC)c1-n1c2c(cc(-c3nc(-c4ccc(Cl)cc4)cs3)c1=O)C(=O)CC(C)(C)C2 [Compound 406] | – | – | 5000 to 20000 | 5000 to 20000
CCOc1ncc(Cl)cc1-n1c(C=C(C)C)c(C(=O)N2CCNCC2)cc(-c2nc(-c3ccc(C(F)F)cc3)cs2)c1=O [Compound 407] | – | – | < 300 | 300 to 1000
CCc1cccc(CC)c1-n1c(C=C(C)C)c(C(=O)N2CCNCC2)cc(-c2nc(-c3ccc(Cl)cc3)cs2)c1=O [Compound 408] | – | – | < 300 | < 300

Second part, the compound after the results:

IC50 [1, 3] [nM] | IC50 [2, 4] [nM] | IC50 [1, 5] [nM] | IC50 [2, 6] [nM] | SMILES
< 300 | < 300 | – | – | CCc1ccc(F)cc1-n1c(C=C(C)C)c(C(=O)N2CCNCC2)cc(-c2nc(-c3ccc(C(F)F)cc3)cs2)c1=O [Compound 379]
< 300 | < 300 | – | – | COc1ccc(OC)c(-n2c(C=C(C)C)c(C(=O)N3CCNCC3)cc(-c3nc(-c4ccc(Cl)cc4)cs3)c2=O)c1 [Compound 380]
< 300 | < 300 | – | – | CCOc1ccc(F)cc1-n1c(C=C(C)C)c(C(=O)N2CCNCC2)cc(-c2nc(-c3ccc(Cl)cc3)cs2)c1=O [Compound 381]
300 to 1000 | 300 to 1000 | – | – | COc1ccc(C(F)(F)F)cc1-n1c(C=C(C)C)c(C(=O)N2CCNCC2)cc(-c2nc(-c3ccc(Cl)cc3)cs2)c1=O [Compound 383]
< 300 | < 300 | – | – | CC(C)=Cc1c(C(=O)N2CCNCC2)cc(-c2nc(-c3ccc(Cl)cc3)cs2)c(=O)n1-c1c(Cl)cccc1Cl [Compound 384]
< 300 | < 300 | – | – | CCOc1ccc(C)cc1-n1c(C=C(C)C)c(C(=O)N2CCNCC2)cc(-c2nc(-c3ccc(C(F)F)cc3)cs2)c1=O [Compound 386]
< 300 | < 300 | – | – | CCc1cccc(CC)c1-n1c(CC(C)C)c(C(=O)N2CCNCC2)cc(-c2nc(-c3ccc(Cl)cc3)c(C(=O)OC)s2)c1=O [Compound 387]
< 300 | < 300 | – | – | CCc1cccc(CC)c1-n1c(C=C(C)C)c(C(=O)N2C[C@H]3CC[C@@H](C2)N3)cc(-c2nc(-c3ccc(Cl)cc3)cs2)c1=O [Compound 388]
< 300 | 300 to 1000 | – | – | COc1ccc(Cl)c(-n2c(C=C(C)C)c(C(=O)N3CCNCC3)cc(-c3ccn(-c4ccc(Cl)cc4)n3)c2=O)c1 [Compound 389]
< 300 | 300 to 1000 | – | – | CCc1cccc(CC)c1-n1c(COCCOC)c(C(=O)N2CCNCC2)cc(-c2nc(-c3ccc(Cl)cc3)cs2)c1=O [Compound 393]
< 300 | < 300 | – | – | CCc1cccc(CC)c1-n1c(C=C(C)C)c(C(=O)N2CCNC(C(F)(F)F)C2)cc(-c2nc(-c3ccc(Cl)cc3)cs2)c1=O (stereo not drawn) [Compound 396]
< 300 | < 300 | – | – | COc1cccc(Cl)c1-n1c(C=C(C)C)c(C(=O)N2CCNCC2)cc(-c2nc(-c3ccc(Cl)cc3)cs2)c1=O [Compound 397]
< 300 | < 300 | – | – | CC(C)=Cc1c(C(=O)N2CCNCC2)cc(-c2nc(-c3ccc(Cl)cc3)cs2)c(=O)n1-c1ccccc1OC(C)C [Compound 399]
< 300 | < 300 | – | – | CC(C)=Cc1c(C(=O)N2CCNCC2)cc(-c2nc(-c3ccc(Cl)cc3)cs2)c(=O)n1-c1cc(C)cnc1OC(C)C [Compound 401]
